In PubChem BioAssay (NCI):
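The compound was tested at five concentrations on cells cultured in 96-well plates, with a 48-hour exposure period. GI50 marks 50% less growth. TGI: total growth inhibition.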

Columns and labels:
Test in all cases: DTP human tumour cell line panel, 48 h
SF-539 CNS = tested on: SF-539 CNS
SN12C renal = tested on: SN12C renal
LOX IMVI melanoma = tested on: LOX IMVI melanoma
NCI-H522 lung = tested on: NCI-H522 lung
A549 NSCLC = tested on: A549 NSCLC
KM12 colon = tested on: KM12 colon
BT-549 breast = tested on: BT-549 breast
T-47D breast = tested on: T-47D breast
SF-268 CNS = tested on: SF-268 CNS
OVCAR-3 ovarian = tested on: OVCAR-3 ovarian
MCF7 breast = tested on: MCF7 breast
TK-10 renal = tested on: TK-10 renal
U251 CNS = tested on: U251 CNS
SK-MEL-28 melanoma = tested on: SK-MEL-28 melanoma
SNB-19 CNS = tested on: SNB-19 CNS
SW-620 colon = tested on: SW-620 colon
OVCAR-4 ovarian = tested on: OVCAR-4 ovarian
MALME-3M melanoma = tested on: MALME-3M melanoma
COLO 205 colon = tested on: COLO 205 colon
OVCAR-8 ovarian = tested on: OVCAR-8 ovarian
ACHN renal = tested on: ACHN renal
NCI-H460 lung = tested on: NCI-H460 lung
SK-OV-3 ovarian = tested on: SK-OV-3 ovarian
SK-MEL-2 melanoma = tested on: SK-MEL-2 melanoma
MOLT-4 leukemia = tested on: MOLT-4 leukemia
HCT-15 colon = tested on: HCT-15 colon
PC-3 prostate = tested on: PC-3 prostate
HT29 colon = tested on: HT29 colon
IGROV1 ovarian = tested on: IGROV1 ovarian
HCT-116 colon = tested on: HCT-116 colon
786-0 renal = tested on: 786-0 renal
HL-60(TB) leukemia = tested on: HL-60(TB) leukemia
SF-295 CNS = tested on: SF-295 CNS
UO-31 renal = tested on: UO-31 renal
M14 melanoma = tested on: M14 melanoma
MDA-MB-435 = tested on: MDA-MB-435
A498 renal = tested on: A498 renal
RPMI-8226 leukemia = tested on: RPMI-8226 leukemia
DU-145 prostate = tested on: DU-145 prostate
SNB-75 CNS = tested on: SNB-75 CNS
RXF 393 renal = tested on: RXF 393 renal
CAKI-1 renal = tested on: CAKI-1 renal
UACC-62 melanoma = tested on: UACC-62 melanoma
K-562 leukemia = tested on: K-562 leukemia
HCC-2998 colon = tested on: HCC-2998 colon
SK-MEL-5 melanoma = tested on: SK-MEL-5 melanoma
OVCAR-5 ovarian = tested on: OVCAR-5 ovarian
HOP-62 NSCLC = tested on: HOP-62 NSCLC
NCI/ADR-RES ovarian = tested on: NCI/ADR-RES ovarian
HS 578T breast = tested on: HS 578T breast
MDA-MB-231 breast = tested on: MDA-MB-231 breast
EKVX NSCLC = tested on: EKVX NSCLC
NCI-H226 lung = tested on: NCI-H226 lung
CCRF-CEM leukemia = tested on: CCRF-CEM leukemia
UACC-257 melanoma = tested on: UACC-257 melanoma
SR leukemia = tested on: SR leukemia
HOP-92 NSCLC = tested on: HOP-92 NSCLC
NCI-H23 lung = tested on: NCI-H23 lung

## CS(=O)(=O)c1ccc(Oc2nccc(-c3c(-c4ccc(F)cc4)ncn3C3CCNCC3)n2)cc1
SF-539 CNS
  GI50: > 25 µM
  TGI: > 25 µM
SN12C renal
  GI50: > 25 µM
  TGI: > 25 µM
LOX IMVI melanoma
  GI50: > 25 µM
  TGI: > 25 µM
NCI-H522 lung
  GI50: > 25 µM
  TGI: > 25 µM
A549 NSCLC
  GI50: > 25 µM
  TGI: > 25 µM
KM12 colon
  GI50: > 25 µM
  TGI: > 25 µM
BT-549 breast
  GI50: > 25 µM
  TGI: > 25 µM
T-47D breast
  GI50: > 25 µM
  TGI: > 25 µM
SF-268 CNS
  GI50: > 25 µM
  TGI: > 25 µM
OVCAR-3 ovarian
  GI50: > 25 µM
  TGI: > 25 µM
MCF7 breast
  GI50: > 25 µM
  TGI: > 25 µM
TK-10 renal
  GI50: > 25 µM
  TGI: > 25 µM
U251 CNS
  GI50: > 25 µM
  TGI: > 25 µM
SK-MEL-28 melanoma
  GI50: > 25 µM
  TGI: > 25 µM
SNB-19 CNS
  GI50: > 25 µM
  TGI: > 25 µM
SW-620 colon
  GI50: > 25 µM
  TGI: > 25 µM
OVCAR-4 ovarian
  GI50: > 25 µM
  TGI: > 25 µM
MALME-3M melanoma
  GI50: > 25 µM
  TGI: > 25 µM
COLO 205 colon
  GI50: > 25 µM
  TGI: > 25 µM
OVCAR-8 ovarian
  GI50: > 25 µM
  TGI: > 25 µM
ACHN renal
  GI50: > 25 µM
  TGI: > 25 µM
NCI-H460 lung
  GI50: > 25 µM
  TGI: > 25 µM
SK-OV-3 ovarian
  GI50: > 25 µM
  TGI: > 25 µM
SK-MEL-2 melanoma
  GI50: > 25 µM
  TGI: > 25 µM
MOLT-4 leukemia
  GI50: > 12.9 µM
  TGI: > 18.9 µM
HCT-15 colon
  GI50: > 25 µM
  TGI: > 25 µM
PC-3 prostate
  GI50: > 25 µM
  TGI: > 25 µM
HT29 colon
  GI50: > 22.2 µM
  TGI: > 25 µM
IGROV1 ovarian
  GI50: > 25 µM
  TGI: > 25 µM
HCT-116 colon
  GI50: > 25 µM
  TGI: > 25 µM
786-0 renal
  GI50: > 25 µM
  TGI: > 25 µM
HL-60(TB) leukemia
  GI50: > 20.6 µM
  TGI: > 25 µM
SF-295 CNS
  GI50: > 25 µM
  TGI: > 25 µM
UO-31 renal
  GI50: > 25 µM
  TGI: > 25 µM
M14 melanoma
  GI50: > 25 µM
  TGI: > 25 µM
MDA-MB-435
  GI50: > 25 µM
  TGI: > 25 µM
A498 renal
  GI50: > 25 µM
  TGI: > 25 µM
RPMI-8226 leukemia
  GI50: > 25 µM
  TGI: > 25 µM
DU-145 prostate
  GI50: > 25 µM
  TGI: > 25 µM
SNB-75 CNS
  GI50: > 25 µM
  TGI: > 25 µM
RXF 393 renal
  GI50: > 25 µM
  TGI: > 25 µM
CAKI-1 renal
  GI50: > 25 µM
  TGI: > 25 µM
UACC-62 melanoma
  GI50: > 25 µM
  TGI: > 25 µM
K-562 leukemia
  GI50: > 9.38 µM
  TGI: > 14.9 µM
HCC-2998 colon
  GI50: > 25 µM
  TGI: > 25 µM
SK-MEL-5 melanoma
  GI50: > 25 µM
  TGI: > 25 µM
OVCAR-5 ovarian
  GI50: > 25 µM
  TGI: > 25 µM
HOP-62 NSCLC
  GI50: > 25 µM
  TGI: > 25 µM
NCI/ADR-RES ovarian
  GI50: > 25 µM
  TGI: > 25 µM
HS 578T breast
  GI50: > 25 µM
  TGI: > 25 µM
MDA-MB-231 breast
  GI50: > 25 µM
  TGI: > 25 µM
EKVX NSCLC
  GI50: > 25 µM
  TGI: > 25 µM

## COC(=O)CC[N+]1([O-])CC1
SF-539 CNS
  TGI: > 100 µM
SN12C renal
  TGI: > 100 µM
LOX IMVI melanoma
  TGI: > 100 µM
A549 NSCLC
  TGI: > 100 µM
KM12 colon
  TGI: > 100 µM
T-47D breast
  TGI: > 100 µM
SF-268 CNS
  TGI: > 100 µM
MCF7 breast
  TGI: > 100 µM
TK-10 renal
  TGI: > 100 µM
U251 CNS
  TGI: > 100 µM
SK-MEL-28 melanoma
  TGI: > 100 µM
SNB-19 CNS
  TGI: > 100 µM
SW-620 colon
  TGI: > 100 µM
OVCAR-4 ovarian
  TGI: > 100 µM
MALME-3M melanoma
  TGI: > 100 µM
COLO 205 colon
  TGI: > 100 µM
OVCAR-8 ovarian
  TGI: > 100 µM
ACHN renal
  TGI: > 100 µM
NCI-H460 lung
  TGI: > 100 µM
SK-OV-3 ovarian
  TGI: > 100 µM
NCI-H226 lung
  TGI: > 100 µM
CCRF-CEM leukemia
  TGI: > 100 µM
UACC-257 melanoma
  TGI: > 100 µM
MOLT-4 leukemia
  TGI: > 100 µM
HCT-15 colon
  TGI: > 100 µM
HT29 colon
  TGI: > 100 µM
IGROV1 ovarian
  TGI: > 100 µM
HCT-116 colon
  TGI: > 100 µM
786-0 renal
  TGI: > 100 µM
HL-60(TB) leukemia
  TGI: > 100 µM
SF-295 CNS
  TGI: > 100 µM
UO-31 renal
  TGI: > 100 µM
SR leukemia
  TGI: > 100 µM
M14 melanoma
  TGI: > 100 µM
MDA-MB-435
  TGI: > 100 µM
A498 renal
  TGI: > 100 µM
RPMI-8226 leukemia
  TGI: > 100 µM
DU-145 prostate
  TGI: > 100 µM
SNB-75 CNS
  TGI: > 100 µM
RXF 393 renal
  TGI: > 100 µM
UACC-62 melanoma
  TGI: > 100 µM
HCC-2998 colon
  TGI: > 100 µM
SK-MEL-5 melanoma
  TGI: > 100 µM
OVCAR-5 ovarian
  TGI: > 100 µM
HOP-62 NSCLC
  TGI: > 100 µM
NCI/ADR-RES ovarian
  TGI: > 100 µM
HS 578T breast
  TGI: > 100 µM
HOP-92 NSCLC
  TGI: > 100 µM
MDA-MB-231 breast
  TGI: > 100 µM
EKVX NSCLC
  TGI: > 100 µM
NCI-H23 lung
  TGI: > 100 µM
